# Results: US20100098632A1, “HYDROXYAPATITE PARTICLES” (priority 2006, published 2010)
# How the values were obtained:
# [1] = Clodronate loading on hydroxyapatite particles; assay type: physicochemical; settings: for binding (loading) efficiency of clodronate to HA: 20 mg clodronate per 1 mg particles, disodium salt
# Experimental: Clodronate (dichloromethylenediphosphonic acid disodium salt; Sigma, St. Louis, Mo.) was dissolved in distilled water (200 mg/mL) and 20 mg was added to 1 mg of hydroxyapatite particles. The mixture was incubated for 30 minutes. After hydroxyapatite particle binding, free clodronate in the supernatant was complexed with copper (II) ions (Cu^2) in nitric acid solution and the concentration was assayed by ultraviolet spectrophotometry as described elsewhere (Ostovic et al., Pharm Res., 10:470-472 (1993)). The amount of clodronate bound to hydroxyapatite particles was calculated by subtracting free clodronate from input clodronate.
# The feasibility of utilizing the HA-biphosphonate interaction for drug loading onto the particles also was tested. Twenty milligrams of clodronate, a biphosphonate, was mixed with 1 mg of hydroxyapatite particles (40 nm in size) in 10 mM Tris-Cl buffer (pH 7.2), and the mixture was incubated with continuous shaking at room temperature for 30 minutes. Clodronate could be loaded onto hydroxyapatite particles at 10% efficiency (2 mg clodronate/mg HAP; n=3). […] The clodronate that was loaded on hydroxyapatite particles remained biologically active.
# [2] = In vivo biodistribution of Sm-HAP by gamma camera / microSPECT-CT imaging; settings: mice, intravenous, 200 μCi for Sm-HAP
# Experimental: FIG. 1 contains photographs of the distribution of Sm-HAP uptake in mice. […] The mouse was injected intravenously with Sm-153 HA nanoparticles synthesized at 50° C. Imaging was performed 2 hours post injection.
# FIG. 2 contains a photograph of the distribution of Sm-153 EDTMP determined via non-invasive imaging using a small animal gamma camera (X-SPECT).
# To determine the in vivo biodistribution of Sm-HAP, 200 μCi of Sm-HAP were administered intravenously to mice in 150 to 200 μL. The mice were imaged non-invasively using a microSPECT/CT machine.
# Hep3B/Fluc = test: Mouse liver cancer model, bioluminescent tumor imaging; assay type: in vivo, Nude mice; settings: intrahepatic Hep3B/Fluc, treatment day seven, intravenous
# Experimental: Experiments were performed to evaluate Sm-153-hydroxyapatite particles (Sm-HAP) alone or in combination with PS-341, a radiosensitizer drug, in a mouse liver cancer model. Nude mice were injected intrahepatically with Hep3B/Fluc, a human hepatocellular carcinoma cell line expressing Firefly luciferase. Tumor growth was determined using a Xenogen Bioluminescent IVIS 200 Imaging System. On day seven after tumor implantation, mice were injected intravenously via the tail vein with 200 μg HAP, 0.5 mCi free Sm-153-EDTMP, 0.5 mCi Sm-HAP alone, or 0.5 mCi Sm-HAP in combination with two intraperitoneal doses of 0.5 mg/kg PS-341, the first administered one day prior to Sm-HAP administration and the second administered one day after Sm-HAP administration. […] In contrast, tumors in mice treated with the combination therapy (Sm-HAP and two doses of PS-341) regressed, as evidenced by a decrease in the signal (FIG. 7).
# [3] = Labeling of preformed hydroxyapatite particles by incubation with Sm-153-EDTMP; assay type: physicochemical; settings: 1 mg particles with 200 μCi for up to 2 hours at room temperature
# Experimental: The unlabeled, hydroxyapatite particles were incubated with Sm-153-EDTMP. Briefly, 1 mg of hydroxyapatite particles was incubated with 200 μCi of Sm-153-EDTMP for up to 2 hours at room temperature (25° C.). The resulting hydroxyapatite particles were spun down and resuspended in 10 mM Tris buffer pH 7.2. The amount of Sm-153 radioactivity in the hydroxyapatite particles was determined and found to be negligible.
Compound,final concentration of clodronate on HA ([1]; 40 nm HA),binding (loading) efficiency of clodronate to HA ([1]; 40 nm HA),"binding (loading) efficiency of clodronate to HA ([1]; 40 nm HA, listed as clondronate)","clodronate loaded per mg particles ([1]; 40 nm, 10 mM Tris-Cl pH 7.2, 30 minutes, n=3)",in vivo biodistribution (uptake sites by imaging) [2],tumor course by bioluminescent signal (Hep3B/Fluc),amount of Sm-153 radioactivity in the hydroxyapatite particles [3]
"O=P([O-])([O-])C(Cl)(Cl)P(=O)(O)O.[Na+].[Na+] [clodronate, dichloromethylenediphosphonic acid disodium salt]",2 mg clodronate/mg HA,10%,about 10%,2 mg clodronate/mg HAP,,,
O=P([O-])(O)CN(CCN(CP(=O)([O-])O)CP(=O)(O)O)CP(=O)([O-])O.[153Sm+3] [Sm-153-EDTMP],,,,,binds to the skeleton of the mouse,progressed,negligible
